The results in this text go back to patent US20260092062A1, “PYRIDINE CARBOXAMIDE COMPOUNDS AND THEIR USE IN TREATING MEDICAL CONDITIONS” (Rectify Pharmaceuticals, Inc., priority 2022, published 2026).

T1 sequence (O95342 whole entry E297G): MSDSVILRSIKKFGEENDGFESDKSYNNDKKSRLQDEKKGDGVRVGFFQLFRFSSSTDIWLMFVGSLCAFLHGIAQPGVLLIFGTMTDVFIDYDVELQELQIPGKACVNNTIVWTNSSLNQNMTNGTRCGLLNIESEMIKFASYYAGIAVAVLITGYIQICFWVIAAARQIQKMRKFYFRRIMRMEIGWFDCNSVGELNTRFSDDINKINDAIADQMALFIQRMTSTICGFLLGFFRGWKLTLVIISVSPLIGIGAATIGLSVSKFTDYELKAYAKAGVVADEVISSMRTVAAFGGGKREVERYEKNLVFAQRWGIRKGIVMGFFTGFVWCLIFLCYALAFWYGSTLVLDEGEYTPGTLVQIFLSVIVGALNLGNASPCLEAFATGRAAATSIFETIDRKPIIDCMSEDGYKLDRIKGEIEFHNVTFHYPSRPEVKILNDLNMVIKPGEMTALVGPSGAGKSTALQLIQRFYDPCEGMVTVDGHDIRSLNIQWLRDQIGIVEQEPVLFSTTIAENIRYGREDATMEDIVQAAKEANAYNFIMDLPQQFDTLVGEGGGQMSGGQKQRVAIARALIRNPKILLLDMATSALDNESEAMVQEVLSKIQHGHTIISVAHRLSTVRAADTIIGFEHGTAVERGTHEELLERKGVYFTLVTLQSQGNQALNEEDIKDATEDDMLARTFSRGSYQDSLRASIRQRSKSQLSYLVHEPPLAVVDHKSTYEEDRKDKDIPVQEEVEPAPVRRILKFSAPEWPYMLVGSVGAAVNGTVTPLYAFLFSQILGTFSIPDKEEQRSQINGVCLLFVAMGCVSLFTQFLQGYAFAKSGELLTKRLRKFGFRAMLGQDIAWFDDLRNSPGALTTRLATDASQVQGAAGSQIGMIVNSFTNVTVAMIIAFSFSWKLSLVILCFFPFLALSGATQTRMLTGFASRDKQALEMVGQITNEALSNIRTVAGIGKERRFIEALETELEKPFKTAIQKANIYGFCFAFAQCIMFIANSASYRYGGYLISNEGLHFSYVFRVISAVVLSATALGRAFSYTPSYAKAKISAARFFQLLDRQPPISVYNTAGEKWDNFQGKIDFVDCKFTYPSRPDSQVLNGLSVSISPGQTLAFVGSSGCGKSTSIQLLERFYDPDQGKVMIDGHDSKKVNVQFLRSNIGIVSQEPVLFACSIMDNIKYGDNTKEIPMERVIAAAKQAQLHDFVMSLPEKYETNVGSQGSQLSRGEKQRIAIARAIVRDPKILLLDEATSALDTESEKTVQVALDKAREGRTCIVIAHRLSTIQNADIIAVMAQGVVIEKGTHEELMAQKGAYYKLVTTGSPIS

This experiment concerns the target T1, E297G variant of human ABCB11 (Homo sapiens, UniProt O95342, E297G).
T1 construct: expressed in transfected cells
Nature of the experiment: ABCB11 E297G expression assay (HiBit lytic luminescence) in HEK-293/E297G cells. It counts as cell-based. To be noted: increase in expression of ABCB11 E297G, 24 hours treatment, top concentration 25 μM, class also includes Emax criterion, read-out: BSEP EC50. An excerpt: To assess activity against ABCB11 E297G, the compounds were screened in an assay measuring protein expression, using cells transfected with cDNA encoding HiBit-tagged ABCB11 E297G.
Here we describe an assay for measuring the expression of the E297G variant of human ABCB11 (henceforth referred to as ABCB11 E297G) and the use of this assay to measure the efficacy of compounds to increase the expression of ABCB11 E297G. The assay was designed to characterize the efficacy and potency of compounds to increase the expression of ABCB11 E297G by calculating an Emax and EC50 value. HEK-293 cells stably expressing E297G (HEK-293/E297G cells) were used for this assay and were maintained at 37° C. (5% CO2, humidified) in Eagle's Minimum Essential Medium supplemented with 10% fetal bovine serum and 1% Glutamine. For the assay, the HEK-293/E297G cells were seeded in black/transparent-bottom 384-well plates at 20,000 cells/well in 22.5 μl Opti-MEM (Thermofisher, product #11058021) media supplemented with 2.7% of fetal bovine serum (Gibco, product #16000044) and allowed to settle for 4 hours at 37° C. (5% CO2, humidified). Compound serial dilutions are prepared in Opti-MEM as four times (4×) the final concentration and using a dilution factor of 2.15. After the four h incubation period, 7.5 μL of the 4× dilutions are transferred to the assay plate.
Dose response curves include eight doses with the top final concentration at 25 μM in 0.75% DMSO. Liquid handling is performed in a robotic device equipped with a 384-tip head (Analytik Jena—CyBio Vario). After addition of compound treatment, cells are incubated for 24 hours at 37° C. (5% CO2, humidified). After the 24-hour treatment, plates are allowed to equilibrate for 30 minutes at room temperature. Using the Analytik Jena—CyBio Vario instrument, the volume of each well is reduced to 15 μl and 15 μl of HiBit lytic assay reagent (Promega, product #N3040), which is prepared according to manufacturer's instructions, is added back to each well. The plates are incubated at room temperature for additional 30 minutes and luminescent signal is acquired using a Hamamatsu FDSS 7000 EX plate-reader (20 reads, exposure time 0.2 seconds, gain 200).
Results are presented below in Table 3 for ABCB11 E297G.
On the technique in general: With HiBiT, luminescence reflects the tagged protein that the partner subunit can reach.
For `Cc1ccc(NC(=O)c2cnc(-c3ccccn3)nc2)nc1-c1cn(C)c(=O)c2[nH]ccc12` [Compound I-1], the EC50 was 2.5 to 10 µM.
In the case of `Cc1ccc(NC(=O)[C@@H]2CCCN2C(C)C)nc1-c1cn(C)c(=O)c2[nH]ccc12` [Compound I-2], the 50% effective concentration (EC50) was 2.5 to 10 µM.
`Cc1ccc(NC(=O)c2cnn(-c3ccccc3F)c2)nc1-c1cn(C)c(=O)c2[nH]ccc12` [Compound I-3]: the EC50 is more than 25 µM.
As for `Cc1ccc(NC(=O)c2nc(-c3ccccc3)ns2)nc1-c1cn(C)c(=O)c2[nH]ccc12` [Compound I-4], the EC50 was more than 25 µM.
On to `Cc1ccc(NC(=O)c2ccc(C(F)(F)F)nc2)nc1-c1cn(C)c(=O)c2[nH]ccc12` [Compound I-5], for which the EC50 is 2.5 to 10 µM.
The same measure for `Cc1ccc(NC(=O)c2cccc3c2OC(C)(C)CC3)nc1-c1cn(C)c(=O)c2[nH]ccc12` [Compound I-6]: 2.5 to 10 µM; for `Cc1ccc(NC(=O)c2cnc(C(F)(F)F)s2)nc1-c1cn(C)c(=O)c2[nH]ccc12` [Compound I-7]: more than 25 µM; for `Cc1ccc(NC(=O)c2cc(CC(C)C)nn2C)nc1-c1cn(C)c(=O)c2[nH]ccc12` [Compound I-8]: less than 2.5 µM.
The same measure for `Cc1ccc(NC(=O)c2cnn(-c3ccccc3)c2C)nc1-c1cn(C)c(=O)c2[nH]ccc12` [Compound I-9]: more than 25 µM.
As to `Cc1cnc2ncc(C(=O)Nc3ccc(C)c(-c4cn(C)c(=O)c5[nH]ccc45)n3)n2c1` [Compound I-10], the EC50 was more than 25 µM.
On to `Cc1ccc(NC(=O)C2CCN(c3ccccc3)CC2)nc1-c1cn(C)c(=O)c2[nH]ccc12` [Compound I-11], for which the half-maximal effective concentration (EC50) is less than 2.5 µM.
`Cc1ccc(NC(=O)C2CCN(c3ccccn3)CC2)nc1-c1cn(C)c(=O)c2[nH]ccc12` [Compound I-12]: the EC50 fell in the range of 2.5 to 10 µM.
As for `Cc1ccc(NC(=O)C2CCN(S(C)(=O)=O)CC2)nc1-c1cn(C)c(=O)c2[nH]ccc12` [Compound I-13], the 50% effective concentration (EC50) lay within 10 to 25 µM.
For `Cc1ccc(NC(=O)c2cc3ccc(F)cc3n2C)nc1-c1cn(C)c(=O)c2[nH]ccc12` [Compound I-14], the EC50 was more than 25 µM.
Then `Cc1ccc(NC(=O)c2ccc3c(c2)OCCN3C)nc1-c1cn(C)c(=O)c2[nH]ccc12` [Compound I-15], with 2.5 to 10 µM.
Then `Cc1ccc(NC(=O)c2nc3c(s2)CN(C)CC3)nc1-c1cn(C)c(=O)c2[nH]ccc12` [Compound I-16], with 10 to 25 µM; and `Cc1ccc(NC(=O)C2CCC(F)(F)C2)nc1-c1cn(C)c(=O)c2[nH]ccc12` (centres unmarked) [Compound I-17], with less than 2.5 µM.
`Cc1ccc(NC(=O)c2ccc3c(c2)n(C)c(=O)n3C)nc1-c1cn(C)c(=O)c2[nH]ccc12` [Compound I-18]: the EC50 is more than 25 µM.
In the case of `Cc1ccc(NC(=O)c2cc(-c3ccccc3)no2)nc1-c1cn(C)c(=O)c2[nH]ccc12` [Compound I-19], the half-maximal effective concentration (EC50) was more than 25 µM.
`Cc1ccc(NC(=O)c2ccc3c(ccn3C)c2)nc1-c1cn(C)c(=O)c2[nH]ccc12` [Compound I-20]: the concentration giving a half-maximal response (EC50) was in the range of 2.5 to 10 µM.
Regarding `Cc1ccc(NC(=O)c2cnn(C3CCOCC3)c2)nc1-c1cn(C)c(=O)c2[nH]ccc12` [Compound I-21], the EC50 was 10 to 25 µM.
Turning to `Cc1ccc(NC(=O)c2coc(N3CCOCC3)n2)nc1-c1cn(C)c(=O)c2[nH]ccc12` [Compound I-22], the EC50 lay in the range of 2.5 to 10 µM.
Then `Cc1ccc(NC(=O)c2ccc(-n3cccn3)cc2)nc1-c1cn(C)c(=O)c2[nH]ccc12` [Compound I-23], with more than 25 µM; and `Cc1ccc(NC(=O)c2ccncn2)nc1-c1cn(C)c(=O)c2[nH]ccc12` [Compound I-24], with 10 to 25 µM; and `CCOC(=O)N1CCC(C(=O)Nc2ccc(C)c(-c3cn(C)c(=O)c4[nH]ccc34)n2)CC1` [Compound I-25], with 2.5 to 10 µM.
In the case of `Cc1ccc(NC(=O)c2ccc3cnccc3c2)nc1-c1cn(C)c(=O)c2[nH]ccc12` [Compound I-26], the EC50 lay within 2.5 to 10 µM.
Regarding `Cc1ccc(NC(=O)c2cc3n(n2)CCCC3)nc1-c1cn(C)c(=O)c2[nH]ccc12` [Compound I-27], the EC50 lay within 2.5 to 10 µM.
With `Cc1ccc(NC(=O)C2CCCc3ccccc32)nc1-c1cn(C)c(=O)c2[nH]ccc12` (centres unmarked) [Compound I-176], the half-maximal effective concentration (EC50) was less than 2.5 µM.
As for `Cc1ccc(NC(=O)C2CCc3ccccc32)nc1-c1cn(C)c(=O)c2[nH]ccc12` (centres unmarked) [Compound I-177], the EC50 lay within 2.5 to 10 µM.

In general, EC50 refers to the midpoint of the concentration-response curve.
